pIC50: −log10 of the molar value.
How the values were obtained:
Wip1 [1] = biological target: T1, Wip1 (Homo sapiens, UniProt O15297); assay: Quantitative ELISA of γH2AX levels in MCF7 cells; type: cell-based; conditions: no IR (Figure S2)
T1 sequence (O15297 1-605): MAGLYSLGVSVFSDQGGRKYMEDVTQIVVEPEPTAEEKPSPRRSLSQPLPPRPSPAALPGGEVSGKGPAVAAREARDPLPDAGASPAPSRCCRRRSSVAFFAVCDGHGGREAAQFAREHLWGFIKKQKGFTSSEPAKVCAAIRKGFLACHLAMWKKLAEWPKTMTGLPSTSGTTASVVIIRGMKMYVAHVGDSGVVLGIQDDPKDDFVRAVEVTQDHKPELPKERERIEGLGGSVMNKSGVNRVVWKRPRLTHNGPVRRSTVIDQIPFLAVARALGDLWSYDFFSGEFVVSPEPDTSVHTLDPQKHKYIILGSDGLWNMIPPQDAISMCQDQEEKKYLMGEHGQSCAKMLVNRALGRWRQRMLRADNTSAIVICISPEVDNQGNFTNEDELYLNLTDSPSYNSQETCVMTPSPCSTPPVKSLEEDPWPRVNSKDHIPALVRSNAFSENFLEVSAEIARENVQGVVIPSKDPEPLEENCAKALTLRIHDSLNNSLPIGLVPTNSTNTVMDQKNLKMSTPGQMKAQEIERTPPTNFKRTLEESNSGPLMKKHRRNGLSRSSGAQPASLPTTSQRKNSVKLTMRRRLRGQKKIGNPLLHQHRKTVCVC

Wip1 [2] = biological target: T1, Wip1; assay: Inhibition of Wip1 phosphatase activity toward the ATM; type: biochemical

| increase in γH2AX levels in the absence of exposure to IR (Wip1 [1]) | pIC50 (Wip1 [2]) | SMILES |
| --- | --- | --- |
| did not produce a detectable increase | 6.04 | COC(=O)[C@H](CCCCNC(=O)[C@H](CC1CCCCC1)NC(=O)c1cccs1)NC(=O)c1cccc(O)c1 [Compound 1, Methyl-N^6-((S)-3-cyclohexyl-2-(thiophene-2-carboxamido)propanoyl)-N^2-(3-hydroxybenzoyl)-L-lysinate] |
| did not produce a detectable increase | – | Cc1ncc(Cl)cc1NCc1ccc(C(=O)N[C@@H](CC2CCCC2)C(=O)NC2CC2)s1 [GSK2830371, reference compound] |
